The record followed here is US20250282760A1 (Merck Sharp & Dohme LLC, priority 2022, published 2025).

For this experiment, the target named is T1, human OX2R (Homo sapiens, UniProt O43614).
T1 construct: expressed in transfected cells; host or cells: Chinese hamster ovary (CHO) cells, kept under G418 selection
T1 sequence (O43614 1-444): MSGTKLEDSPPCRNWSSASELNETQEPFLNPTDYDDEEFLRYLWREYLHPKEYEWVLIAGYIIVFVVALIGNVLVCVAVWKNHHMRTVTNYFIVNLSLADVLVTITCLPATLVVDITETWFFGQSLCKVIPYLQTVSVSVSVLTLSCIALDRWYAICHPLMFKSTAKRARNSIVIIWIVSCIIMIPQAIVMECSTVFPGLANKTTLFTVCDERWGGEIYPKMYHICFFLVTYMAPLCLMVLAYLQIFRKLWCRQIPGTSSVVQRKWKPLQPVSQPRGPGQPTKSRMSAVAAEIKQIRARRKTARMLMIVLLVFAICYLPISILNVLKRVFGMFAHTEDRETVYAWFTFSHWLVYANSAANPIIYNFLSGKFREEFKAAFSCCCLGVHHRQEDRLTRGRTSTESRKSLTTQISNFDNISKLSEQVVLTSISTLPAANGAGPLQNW
Put plainly: IPOne (IP-1 accumulation) assay of orexin receptor agonist activity in CHO cells expressing human OX2R. The experiment is classed as cell-based. The note with it: for IC50: CHO cells expressing human OX2R, IP-One assay, 2 hours incubation, four parameter logistic fit, read-out: hOX2R_IP IC50; for Emax: CHO, percent activity at maximum tested concentration, relative to reference compound at 1 uM (100% activity) for human OX2R. The text has this:
The utility of the compounds in accordance with the present invention as orexin receptor OX1R and/or OX2R agonists may be readily determined without undue experimentation by methodology well known in the art. Both the OX1R and/or OX2R G-coupled protein receptors (GPCRs) couple through the Gαq signaling pathway, which ultimately promotes calcium mobilization via inositol triphosphate (IP3) production. […] The utility of the compounds in accordance with the present invention as orexin receptor OX1R and/or OX2R agonists may be determined utilizing this assay.
In a typical experiment, the OX1 and OX2 receptor agonist activity is determined in accordance with the following general experimental method. Chinese hamster ovary (CHO) cells expressing human OX1R and/or the human OX2R were grown in Iscove's modified DMEM containing glutaMAX™, 1% G418, 100 U/mL penicillin, 100 μg/mL streptomycin and 10% heat-inactivated qualified fetal bovine serum (FBS). […] During this incubation, IP-one detection reagents were prepared (38:1:1 lysis buffer:D2:AB-cryptate reagents).
For each compound, data were fit to a four parameter logistic fit (ActivityBase software) and the EC50 was reported as the inflection point of the resulting curve. Percent effect for each test compound was determined as the percentage of sample raw value/mean max effect, where the mean max effect was derived from the mean raw value of 32 control wells per assay plate (using Orexin A (cat #003-30) at 1 μM for human OX1R and a reference compound at 1 uM with 100% activity previously established by comparison to Orexin A for human OX2R). The intrinsic orexin receptor agonist activity of a compound which may be used in the present invention may be determined by these assays.

Usually IC50 stands for the concentration that gives 50% inhibition. As a reminder, the Emax is the maximal effect, on the per cent scale that the assay sets. For `CC(C)C(=O)N1[C@H](C)CN(S(=O)(=O)c2ccccc2)C[C@@H]1C(=O)NCc1ccc2ccccc2c1` (relative stereo) [Example 19-1, cis-1-isobutyryl-6-methyl-N-(naphthalen-2-ylmethyl)-4-(phenylsulfonyl)piperazine-2-carboxamide], the IC50 was 245 nM and the maximal effect (Emax) was found to be 100%.

`CC(C)C(=O)N1[C@H](C)CN(S(=O)(=O)c2ccccc2)C[C@@H]1C(=O)NCc1ccc(-c2ccccc2)cc1` (relative stereo) [Example 19-3, cis-N-([1,1′-biphenyl]-4-ylmethyl)-1-isobutyryl-6-methyl-4-(phenylsulfonyl)piperazine-2-carboxamide]: the IC50 was found to be 68.9 nM and the Emax stood at 87.1%.

Regarding `CC(C)C(=O)N1[C@H](C)CN(S(=O)(=O)c2ccccc2)C[C@@H]1C(=O)NCc1ccc(OC(C)(F)F)cc1` (relative stereo) [Example 19-4, cis-N-(4-(1,1-difluoroethoxy)benzyl)-1-isobutyryl-6-methyl-4-(phenylsulfonyl)piperazine-2-carboxamide], the concentration for half-maximal inhibition (IC50) was found to be 70.2 nM and the Emax worked out at 101%.

For the compound `CC(C)C(=O)N1[C@H](C)CN(S(=O)(=O)c2ccccc2)C[C@@H]1C(=O)NCc1ccc(-c2ncccn2)cc1` (relative stereo) [Example 19-5, cis-1-isobutyryl-6-methyl-4-(phenylsulfonyl)-N-(4-(pyrimidin-2-yl)benzyl)piperazine-2-carboxamide], the IC50 turned out to be 79.5 nM and the Emax was 101%.

With `CC(C)C(=O)N1[C@H](C)CN(S(=O)(=O)c2ccccc2)C[C@@H]1C(=O)NCc1ccc(-c2nccs2)cc1` (relative stereo) [Example 19-6, cis-1-isobutyryl-6-methyl-4-(phenylsulfonyl)-N-(4-(thiazol-2-yl)benzyl)piperazine-2-carboxamide], the IC50 came to 81.3 nM and the maximal response (Emax) was found to be 98.7%.

For `CC(C)C(=O)N1[C@H](C)CN(S(=O)(=O)c2ccccc2)C[C@@H]1C(=O)NCc1ccc(-n2nccn2)cc1` (relative stereo) [Example 19-7, cis-N-(4-(2H-1,2,3-triazol-2-yl)benzyl)-1-isobutyryl-6-methyl-4-(phenylsulfonyl)piperazine-2-carboxamide], the IC50 amounted to 82.2 nM and the maximal response (Emax) is 101%.

`CC(C)C(=O)N1[C@H](C)CN(S(=O)(=O)c2ccccc2)C[C@@H]1C(=O)NCc1ccc(-c2ncco2)cc1` (relative stereo) [Example 19-8, cis-1-isobutyryl-6-methyl-N-(4-(oxazol-2-yl)benzyl)-4-(phenylsulfonyl)piperazine-2-carboxamide]: the 50% inhibitory concentration (IC50) is 146 nM and the Emax was determined as 99.5%.

Take `CC(C)C(=O)N1[C@H](C)CN(S(=O)(=O)c2ccccc2)C[C@@H]1C(=O)NCc1ccc(-n2cccn2)cc1` (relative stereo) [Example 19-9, cis-N-(4-(1H-pyrazol-1-yl)benzyl)-1-isobutyryl-6-methyl-4-(phenylsulfonyl)piperazine-2-carboxamide]: the IC50 was 409 nM and the maximal response (Emax) is 99.2%.

For `CCCc1ccc(CNC(=O)[C@H]2CN(S(=O)(=O)c3ccccc3)C[C@@H](C)N2C(=O)C(C)C)cc1` (relative stereo) [Example 19-10, cis-1-isobutyryl-6-methyl-4-(phenylsulfonyl)-N-(4-propylbenzyl)piperazine-2-carboxamide], the half-inhibitory concentration (IC50) worked out at 158 nM and the maximal response (Emax) was determined as 93.8%.

As to `CCOc1ccc(CNC(=O)[C@H]2CN(S(=O)(=O)c3ccccc3)C[C@@H](C)N2C(=O)C(C)C)cc1` (relative stereo) [Example 19-11, cis-N-(4-ethoxybenzyl)-1-isobutyryl-6-methyl-4-(phenylsulfonyl)piperazine-2-carboxamide], the IC50 worked out at 264 nM and the Emax was 93.1%.

Regarding `CC(C)C(=O)N1[C@H](C)CN(S(=O)(=O)c2ccccc2)C[C@@H]1C(=O)NCc1ccc(-c2ccccc2F)cc1` (relative stereo) [Example 21, cis-N-((2′-fluoro-[1,1′-biphenyl]-4-yl)methyl)-1-isobutyryl-6-methyl-4-(phenylsulfonyl)piperazine-2-carboxamide], the IC50 turned out to be 92.2 nM and the maximal effect (Emax) is 90.7%.

Regarding `CC(C)C(=O)N1[C@H](C)CN(S(=O)(=O)c2ccccc2)C[C@@H]1C(=O)NCc1ccc(-c2ccco2)cn1` (relative stereo) [Example 23, cis-N-((5-(furan-2-yl)pyridin-2-yl)methyl)-1-isobutyryl-6-methyl-4-(phenylsulfonyl)piperazine-2-carboxamide], the half-inhibitory concentration (IC50) came to 108 nM and the maximum response (Emax) was found to be 98.9%.

With `CC(C)C(=O)N1[C@H](C)CN(S(=O)(=O)c2ccccc2)C[C@@H]1C(=O)NCc1ccc(-c2ccco2)c(F)c1` (relative stereo) [Example 26, cis-N-(3-fluoro-4-(furan-2-yl)benzyl)-1-isobutyryl-6-methyl-4-(phenylsulfonyl)piperazine-2-carboxamide], the IC50 stood at 11.2 nM and the maximal response (Emax) was 100%.

Consider `Cc1cc(-c2ccco2)ccc1CNC(=O)[C@H]1CN(S(=O)(=O)c2ccccc2)C[C@@H](C)N1C(=O)C(C)C` (relative stereo) [Example 29, cis-N-(4-(furan-2-yl)-2-methylbenzyl)-1-isobutyryl-6-methyl-4-(phenylsulfonyl)piperazine-2-carboxamide], for which the IC50 was determined as 13.1 nM and the Emax is 99.6%.

As to `CC(C)C(=O)N1[C@H](C)CN(S(=O)(=O)c2ccccc2)C[C@@H]1C(=O)NCc1ccc(-c2ccco2)cc1F` (relative stereo) [Example 32, cis-N-(2-fluoro-4-(furan-2-yl)benzyl)-1-isobutyryl-6-methyl-4-(phenylsulfonyl)piperazine-2-carboxamide], the IC50 is 58.5 nM and the Emax came out at 99.9%.

As to `CC(C)C(=O)N1[C@H](C)CN(S(=O)(=O)c2ccccc2)C[C@@H]1C(=O)NCc1ccc(-c2ccccn2)cc1` (relative stereo) [Example 42-1, cis-1-isobutyryl-6-methyl-4-(phenylsulfonyl)-N-(4-(pyridin-2-yl)benzyl)piperazine-2-carboxamide], the half-maximal inhibitory concentration (IC50) came out at 121 nM and the Emax stood at 100%.

As to `COc1cc(CNC(=O)[C@H]2CN(S(=O)(=O)c3ccccc3)C[C@@H](C)N2C(=O)C(C)C)ccc1-c1ccco1` (relative stereo) [Example 47-1, cis-N-(4-(furan-2-yl)-3-methoxybenzyl)-1-isobutyryl-6-methyl-4-(phenylsulfonyl)piperazine-2-carboxamide], the half-maximal inhibitory concentration (IC50) worked out at 19200 nM and the maximum response (Emax) amounted to 38.4%.

Turning to `CC(C)C(=O)N1[C@H](C)CN(S(=O)(=O)c2ccccc2)C[C@@H]1C(=O)NCc1ccc(-c2ccco2)c(C#N)c1` (relative stereo) [Example 47-2, cis-N-(3-cyano-4-(furan-2-yl)benzyl)-1-isobutyryl-6-methyl-4-(phenylsulfonyl)piperazine-2-carboxamide], the half-inhibitory concentration (IC50) was 144 nM and the maximum response (Emax) stood at 98.3%.

In the case of `CC(C)C(=O)N1[C@H](C)CN(S(=O)(=O)c2ccccc2)C[C@@H]1C(=O)NCc1cc(F)c(-c2ccco2)c(F)c1` (relative stereo) [Example 47-3, cis-N-(3,5-difluoro-4-(furan-2-yl)benzyl)-1-isobutyryl-6-methyl-4-(phenylsulfonyl)piperazine-2-carboxamide], the IC50 was determined as 29.5 nM and the Emax stood at 99.7%.

Take `COc1cc(-c2ccco2)ccc1CNC(=O)[C@H]1CN(S(=O)(=O)c2ccccc2)C[C@@H](C)N1C(=O)C(C)C` (relative stereo) [Example 47-4, cis-N-(4-(furan-2-yl)-2-methoxybenzyl)-1-isobutyryl-6-methyl-4-(phenylsulfonyl)piperazine-2-carboxamide]: the 50% inhibitory concentration (IC50) came to 27.9 nM and the maximum response (Emax) worked out at 94.2%.

With `Cc1cc(-c2ccco2)c(F)cc1CNC(=O)[C@@H]1CN(S(=O)(=O)c2ccccc2)C[C@H](C)N1C(=O)C(C)C` (relative stereo) [Example 47-5, cis-N-(5-fluoro-4-(furan-2-yl)-2-methylbenzyl)-1-isobutyryl-6-methyl-4-(phenylsulfonyl) piperazine-2-carboxamide], the IC50 was determined as 14.6 nM and the maximal response (Emax) is 106%.
